Results published in ChEMBL document CHEMBL1201862, “PubChem BioAssay data set” (2004).
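96-well plates; 48 h exposure; 5 concentrations. Endpoints by linear interpolation between flanking doses. Not reached: highest tested concentration assigned. Here, GI50 denotes the concentration required for 50% inhibition of growth.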 The source made the active and inactive calls. Cut-off read from the data, not from the text of the source: active = GI50 up to about 1.1 µM and inactive = higher.

Experiments:
Assay in all cases: NCI-60 cell line screen, 48 h
MDA-MB-435 = system: MDA-MB-435
OVCAR-8 = system: OVCAR-8
HCT-116 = system: HCT-116
OVCAR-5 = system: OVCAR-5
U-251 = system: U-251
SK-MEL-2 = system: SK-MEL-2
SW-620 = system: SW-620
Malme-3M = system: Malme-3M
786-0 = system: 786-0
HL-60 = system: HL-60
MCF7 = system: MCF7
RXF 393 = system: RXF 393
A498 = system: A498
UACC-257 = system: UACC-257
SF-295 = system: SF-295
HOP-62 = system: HOP-62
OVCAR-4 = system: OVCAR-4
HCT-15 = system: HCT-15
SF-539 = system: SF-539
NCI-H226 = system: NCI-H226

Compound	GI50 (MDA-MB-435)	GI50 (OVCAR-8)	GI50 (HCT-116)	GI50 (OVCAR-5)	GI50 (U-251)	GI50 (SK-MEL-2)	GI50 (SW-620)	GI50 (Malme-3M)	GI50 (786-0)	GI50 (HL-60)	GI50 (MCF7)	GI50 (RXF 393)	GI50 (A498)	GI50 (UACC-257)	GI50 (SF-295)	GI50 (HOP-62)	GI50 (OVCAR-4)	GI50 (HCT-15) [µM]	GI50 (SF-539)	GI50 (NCI-H226)
CC(=O)Nc1nc(C)c(S(=O)(=O)NC(=O)N2c3ccccc3CCc3ccccc32)s1	> 100 µM (inactive)	> 100 µM (inactive)	> 100 µM (inactive)	> 100 µM (inactive)	> 100 µM (inactive)	> 100 µM (inactive)	> 100 µM (inactive)	> 100 µM (inactive)	> 100 µM (inactive)	> 100 µM (inactive)	> 100 µM (inactive)	> 100 µM (inactive)	> 100 µM (inactive)	> 100 µM (inactive)	> 100 µM (inactive)	> 100 µM (inactive)	> 100 µM (inactive)	> 100	> 100 µM (inactive)	–
COC(=O)c1c(C)[n+]([O-])c2cc(Cl)c(Cl)cc2[n+]1[O-]	18.6 µM (inactive)	16.6 µM (inactive)	15.5 µM (inactive)	30.9 µM (inactive)	16.5 µM (inactive)	19.4 µM (inactive)	18.3 µM (inactive)	8.45 µM (inactive)	27.2 µM (inactive)	17.7 µM (inactive)	14.5 µM (inactive)	32.9 µM (inactive)	10.2 µM (inactive)	17.1 µM (inactive)	19.6 µM (inactive)	26 µM (inactive)	19 µM (inactive)	9.59	18.9 µM (inactive)	–
O=C(/C=C/c1ccc(Cl)c(Cl)c1)Oc1ccc(/C=C2\CCCCC2=O)cc1	78.2 µM (inactive)	> 100 µM (inactive)	> 100 µM (inactive)	> 100 µM (inactive)	> 100 µM (inactive)	> 100 µM (inactive)	> 100 µM (inactive)	–	> 100 µM (inactive)	25.4 µM (inactive)	> 100 µM (inactive)	–	> 100 µM (inactive)	> 100 µM (inactive)	> 100 µM (inactive)	> 100 µM (inactive)	> 100 µM (inactive)	> 100	> 100 µM (inactive)	–
C[N+](C)(C)CC1CCC(C[N+](C)(C)C)C1=O (stereo not given)	16.3 µM (inactive)	–	1.71 µM (inactive)	7.28 µM (inactive)	9.12 µM (inactive)	14.9 µM (inactive)	–	1.08 µM (active)	1.91 µM (inactive)	–	1.75 µM (inactive)	1.91 µM (inactive)	6.78 µM (inactive)	2.92 µM (inactive)	20.5 µM (inactive)	19.2 µM (inactive)	2.38 µM (inactive)	1.78	7.74 µM (inactive)	12.9 µM (inactive)
O=C(Nc1ccccc1)Oc1ccc(C(=S)Nc2ccc(Br)cc2)cc1	16.9 µM (inactive)	12.6 µM (inactive)	17.3 µM (inactive)	16.6 µM (inactive)	19.5 µM (inactive)	18.3 µM (inactive)	24.5 µM (inactive)	19.2 µM (inactive)	19.4 µM (inactive)	8.13 µM (inactive)	19.1 µM (inactive)	–	19.1 µM (inactive)	20.5 µM (inactive)	20.6 µM (inactive)	28.6 µM (inactive)	14.3 µM (inactive)	16.2	18.6 µM (inactive)	–
O=c1c2ccccc2oc2nc3n(c(=O)c12)CCCS3	> 100 µM (inactive)	> 100 µM (inactive)	> 100 µM (inactive)	> 100 µM (inactive)	> 100 µM (inactive)	> 100 µM (inactive)	> 100 µM (inactive)	> 100 µM (inactive)	> 100 µM (inactive)	–	> 100 µM (inactive)	> 100 µM (inactive)	> 100 µM (inactive)	> 100 µM (inactive)	> 100 µM (inactive)	> 100 µM (inactive)	> 100 µM (inactive)	> 100	> 100 µM (inactive)	> 100 µM (inactive)
CN(C)c1ccc(/C=N\NC(=O)c2ccccc2Nc2ccccc2C(=O)N/N=C/c2ccc(N(C)C)cc2)cc1	> 100 µM (inactive)	> 100 µM (inactive)	> 100 µM (inactive)	28.5 µM (inactive)	> 100 µM (inactive)	> 100 µM (inactive)	> 100 µM (inactive)	38.5 µM (inactive)	> 100 µM (inactive)	–	> 100 µM (inactive)	> 100 µM (inactive)	> 100 µM (inactive)	> 100 µM (inactive)	> 100 µM (inactive)	> 100 µM (inactive)	> 100 µM (inactive)	> 100	20 µM (inactive)	> 100 µM (inactive)
CCN(CC)CCCNc1ccc2ncn3c4ccc(O)cc4c(=O)c1c23	> 10 µM (inactive)	0.467 µM (active)	0.441 µM (active)	1.98 µM (inactive)	1.66 µM (inactive)	3.7 µM (inactive)	0.578 µM (active)	4.78 µM (inactive)	0.643 µM (active)	–	0.687 µM (active)	0.14 µM (active)	4.45 µM (inactive)	11.5 µM (inactive)	1.63 µM (inactive)	0.989 µM (active)	1.01 µM (active)	2.71	2.9 µM (inactive)	0.214 µM (active)
CC(=O)Nc1ccc(S(=O)(=O)[N-]C2C(=O)c3ccccc3C(=O)C2[n+]2ccccc2)cc1 (stereo not given)	4.09 µM (inactive)	17.6 µM (inactive)	> 100 µM (inactive)	17.7 µM (inactive)	14.3 µM (inactive)	12.5 µM (inactive)	17.1 µM (inactive)	12.4 µM (inactive)	> 100 µM (inactive)	13.8 µM (inactive)	16.8 µM (inactive)	16 µM (inactive)	–	16.1 µM (inactive)	15.4 µM (inactive)	17.9 µM (inactive)	15.5 µM (inactive)	28.3	18.5 µM (inactive)	> 100 µM (inactive)
COC(=O)NC(Cc1ccccc1)NC(C)=O (stereo not given)	> 100 µM (inactive)	> 100 µM (inactive)	> 100 µM (inactive)	> 100 µM (inactive)	> 100 µM (inactive)	> 100 µM (inactive)	> 100 µM (inactive)	> 100 µM (inactive)	> 100 µM (inactive)	> 100 µM (inactive)	> 100 µM (inactive)	> 100 µM (inactive)	> 100 µM (inactive)	> 100 µM (inactive)	> 100 µM (inactive)	> 100 µM (inactive)	> 100 µM (inactive)	> 100	> 100 µM (inactive)	–
CC(C)(C)OC(=O)NCC(=O)N1CCN(C(=O)CNC(=O)OC(C)(C)C)CC1	> 100 µM (inactive)	> 100 µM (inactive)	> 100 µM (inactive)	> 100 µM (inactive)	> 100 µM (inactive)	> 100 µM (inactive)	> 100 µM (inactive)	–	> 100 µM (inactive)	> 100 µM (inactive)	> 100 µM (inactive)	–	> 100 µM (inactive)	> 100 µM (inactive)	> 100 µM (inactive)	> 100 µM (inactive)	> 100 µM (inactive)	> 100	> 100 µM (inactive)	> 100 µM (inactive)
COc1ccc2cc(C(=O)NCCc3ccccc3)ccc2c1OC	> 100 µM (inactive)	79.6 µM (inactive)	96.6 µM (inactive)	> 100 µM (inactive)	33 µM (inactive)	71.9 µM (inactive)	> 100 µM (inactive)	> 100 µM (inactive)	39.4 µM (inactive)	–	> 100 µM (inactive)	30.5 µM (inactive)	37.5 µM (inactive)	> 100 µM (inactive)	69.2 µM (inactive)	32.1 µM (inactive)	> 100 µM (inactive)	> 100	32.2 µM (inactive)	63 µM (inactive)
C#CCN(Cc1ccc2[nH]c(N)nc(=O)c2c1)c1ccc(C(=O)NC(CCC(=O)O)C(=O)O)cc1 (stereo not given)	> 100 µM (inactive)	4.4 µM (inactive)	> 100 µM (inactive)	> 100 µM (inactive)	50.9 µM (inactive)	–	> 100 µM (inactive)	47.5 µM (inactive)	6.38 µM (inactive)	> 100 µM (inactive)	5.13 µM (inactive)	–	15.7 µM (inactive)	> 100 µM (inactive)	34 µM (inactive)	23.4 µM (inactive)	–	> 100	0.506 µM (active)	> 100 µM (inactive)
C#CCOC(=O)c1ccc(OC(C)=O)cc1	> 100 µM (inactive)	> 100 µM (inactive)	> 100 µM (inactive)	> 100 µM (inactive)	> 100 µM (inactive)	> 100 µM (inactive)	> 100 µM (inactive)	–	> 100 µM (inactive)	–	> 100 µM (inactive)	> 100 µM (inactive)	> 100 µM (inactive)	> 100 µM (inactive)	> 100 µM (inactive)	> 100 µM (inactive)	> 100 µM (inactive)	> 100	> 100 µM (inactive)	> 100 µM (inactive)
Cc1c(/N=N/c2ccc(Cl)cc2)c(-c2ccccc2)n(C2OC(CO)C(O)C(O)C2O)c(=S)c1C#N (stereo not given)	10.5 µM (inactive)	–	14.3 µM (inactive)	19.2 µM (inactive)	12.7 µM (inactive)	18.8 µM (inactive)	17.6 µM (inactive)	25.5 µM (inactive)	20.2 µM (inactive)	32.6 µM (inactive)	15.2 µM (inactive)	15 µM (inactive)	7.87 µM (inactive)	22.1 µM (inactive)	24.9 µM (inactive)	19.1 µM (inactive)	17.2 µM (inactive)	17.1	20.7 µM (inactive)	–
